Reference: patent publication US10179770B2, “Quinolines derivatives as novel anticancer agents” (GENOSCIENCE PHARMA, priority 2013, dated 2019)

What was measured:
HL-60 = assay: NCI-60 screen (SRB); type: cell-based; details: HL-60 (Leukemia)
Outline: (§1)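 First, cells are seeded and incubated for 24 h, when time-zero plates are fixed. Next, drug is added at five concentrations and incubation continues 48 h. Finally, cells are TCA-fixed, SRB-stained and read at 515 nm to calculate percent growth.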

RPMI-8226 = assay: NCI-60 screen (SRB); type: cell-based; details: RPMI-8226 (Leukemia)
Outline: as §1

HL60 = assay: CellTiter-Glo cell viability assay (example 57); type: cell-based; details: Homo sapiens, HL-60; HL60 (Leukemia); Cell Titer-Glo; 72 h
Description: (§2) The human breast cancer cell line SkBr3 and the human metastatic prostate carcinoma cell line LnCAP were cultured in Dulbecco's modified Eagle's medium (DMEM) supplemented with 10% fetal bovine serum (FBS) and 0.1% sodium pyruvate. The human myelocytic cell line U937 and NB4 were maintained in RPMI medium 1640 1× (Gibco 21875-034) supplemented with 10 % Fetal Bovine Serum (FBS, Eurobio S39130-0808) Kasumi and SKM-1 were maintained in RPMI medium 1640 1× (Gibco 21875-034) supplemented with 20 % Fetal Bovine Serum (FBS, Eurobio S39130-0808), HL60 was maintained in Iscove's modified Dulbecco's medium 1× (IMDM, Gibco 21890) supplemented with 20% Fetal Bovine Serum (FBS, Eurobio S39130-0808), cell line was maintained in MEM alpha medium (Gibco 22561-021) supplemented with 10% FBS at 37° C. with 5% CO2. Cell outgrowth was measured using the CellTiter-Glo luminescent cell viability assay as described by the manufacturer (Promega, Ref G7571 Madison, Wis., USA) using a FLUOstar optima luminometer (BMG Labtech, Ortenberg, Germany).
(§3) Briefly, for adherent cells, 10^4 cells were plated onto 96-well plates (white with clear bottom (3610, Corning Costar) in 100 μL of media per well and were allowed to grow overnight before the assay. For cells growing in suspension, 10^4 cells were plated onto 96-well plates immediately before the assay. […] Vehicle (DMSO) was used as a control, and all compounds were tested in a constant percentage of DMSO (1%). After addition of 50 μL of CellTiter GLO, luminescence was measured using a Centro luminometer (Berthold). EC50 values were determined as the dose of compound required to reduce luminescent values to 50% of the signal obtained for untreated cell cultures. All experiments were done in duplicate and repeated two independent times.

Kasumi-1 = assay: CellTiter-Glo cell viability assay (example 57); type: cell-based; details: Homo sapiens; Kasumi-1 (Leukemia); Cell Titer-Glo; 72 h
Description: as §2, §3

LNCaP = assay: CellTiter-Glo cell viability assay (example 57); type: cell-based; details: Homo sapiens; LNCaP (Prostate); Cell Titer-Glo; 72 h
Description: as §2, §3

NB4 = assay: CellTiter-Glo cell viability assay (example 57); type: cell-based; details: Homo sapiens, NB-4; NB4 (Leukemia); Cell Titer-Glo; 72 h
Description: as §2, §3

SKM-1 = assay: CellTiter-Glo cell viability assay (example 57); type: cell-based; details: Homo sapiens; SKM-1 (Leukemia); Cell Titer-Glo; 72 h
Description: as §2, §3

SkBr3 = assay: CellTiter-Glo cell viability assay (example 57); type: cell-based; details: Homo sapiens, SK-BR-3; SkBr3 (Breast); Cell Titer-Glo; 72 h
Description: as §2, §3

U937 = assay: CellTiter-Glo cell viability assay (example 57); type: cell-based; details: Homo sapiens, U-937; U937 (Leukemia); Cell Titer-Glo; 72 h
Description: as §2, §3

B16F10 = assay: CellTiter-Glo cell viability assay (example 57); type: cell-based, human; details: Mus musculus, B16-F10; B16F10 (Melanoma); Cell Titer-Glo; 72 h
[1] = Homo sapiens, read-out: LC50 (the source's name)

CCN(CC)C1CCN(C(C)c2cc(-c3ccccc3)nc3ccccc23)CC1.Cl.Cl (stereo not shown) [XIX-3, 2-phenyl-4-{1-[4-(N,N-diethylamino)piperidin-1-yl]-eth-1-yl}quinoline dihydrochloride]
TGI (HL-60): 33 µM
Growth percent at 10 μM (HL-60; 10 μM): ++ (cell growth 40 > % < 60)
GI50 (HL-60; Homo sapiens): 17 µM
CC50 (HL-60; [1]): 66 µM
GI50 (RPMI-8226; Homo sapiens): 2 µM
CC50 (RPMI-8226; [1]): 26 µM
TGI (RPMI-8226): 5 µM
Growth percent at 10 μM (RPMI-8226; 10 μM): ++++ (cell growth % < 20)
EC50 (HL60): 40 µM
EC50 (Kasumi-1): 30 µM
EC50 (LNCaP): 25 µM
EC50 (NB4): 37 µM
EC50 (SKM-1): 30 µM
EC50 (SkBr3): 20 µM
EC50 (U937): 35 µM
EC50 (B16F10): 10 µM
